# Assay results as given in article PMC11081458 (Nature structural & molecular biology, 2024).
# How the values were obtained:
# BIg–RbCBM74–BIg [1] = target: T1, BIg–RbCBM74–BIg (Ruminococcus bromii, UniProt A0ABF7PL48); experiment: Isothermal titration calorimetry with BIg–RbCBM74–BIg
# Sas6T = Sas6T (Ruminococcus bromii, UniProt A0ABF7PL48); experiment: Isothermal titration calorimetry with Sas6T; conditions: for n (binding stoichiometry) / binding by ITC (in words): ITC; for n (binding stoichiometry): fitted n
# RbCBM26 = RbCBM26 (Ruminococcus bromii, UniProt A0ABF7PL48); experiment: Isothermal titration calorimetry with RbCBM26; conditions: for binding by ITC (in words) / n (binding stoichiometry): ITC; for n (binding stoichiometry): fitted n
# [2] = system: F326A site-directed mutant within the BIg–RbCBM74–BIg construct; experiment: Isothermal titration calorimetry with F326A mutant; conditions: ITC
# BIg–RbCBM74–BIg [3] = target: T1, BIg–RbCBM74–BIg; experiment: Native mass spectrometry titration, BIg–RbCBM74–BIg; conditions: native MS, 5 μM protein, 200 mM ammonium acetate
# [4] = system: W373A site-directed mutant within the BIg–RbCBM74–BIg construct; experiment: Isothermal titration calorimetry with W373A mutant
# [5] = system: H289A site-directed mutant within the BIg–RbCBM74–BIg construct; experiment: Isothermal titration calorimetry with H289A mutant; conditions: ITC
# [6] = target: previously studied CBM26 modules; conditions: read-out: dissociation constant (Kd) range; cited from earlier work
# T1 sequence (A0ABF7PL48 134-665 limits assumed): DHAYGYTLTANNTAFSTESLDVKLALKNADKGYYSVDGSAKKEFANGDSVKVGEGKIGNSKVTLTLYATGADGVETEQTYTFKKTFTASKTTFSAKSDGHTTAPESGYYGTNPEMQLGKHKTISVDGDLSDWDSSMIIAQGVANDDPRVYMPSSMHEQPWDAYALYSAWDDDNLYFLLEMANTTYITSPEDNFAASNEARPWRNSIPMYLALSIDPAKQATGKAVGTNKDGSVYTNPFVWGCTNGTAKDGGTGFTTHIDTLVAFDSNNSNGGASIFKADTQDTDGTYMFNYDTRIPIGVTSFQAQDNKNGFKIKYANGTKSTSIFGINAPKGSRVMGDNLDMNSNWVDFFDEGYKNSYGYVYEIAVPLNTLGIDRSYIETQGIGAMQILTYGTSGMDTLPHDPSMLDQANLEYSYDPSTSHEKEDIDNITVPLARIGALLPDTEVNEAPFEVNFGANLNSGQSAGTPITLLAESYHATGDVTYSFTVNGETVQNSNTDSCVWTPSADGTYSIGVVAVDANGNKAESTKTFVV
# Sas6T, sequence (A0ABF7PL48 31-665 limits assumed): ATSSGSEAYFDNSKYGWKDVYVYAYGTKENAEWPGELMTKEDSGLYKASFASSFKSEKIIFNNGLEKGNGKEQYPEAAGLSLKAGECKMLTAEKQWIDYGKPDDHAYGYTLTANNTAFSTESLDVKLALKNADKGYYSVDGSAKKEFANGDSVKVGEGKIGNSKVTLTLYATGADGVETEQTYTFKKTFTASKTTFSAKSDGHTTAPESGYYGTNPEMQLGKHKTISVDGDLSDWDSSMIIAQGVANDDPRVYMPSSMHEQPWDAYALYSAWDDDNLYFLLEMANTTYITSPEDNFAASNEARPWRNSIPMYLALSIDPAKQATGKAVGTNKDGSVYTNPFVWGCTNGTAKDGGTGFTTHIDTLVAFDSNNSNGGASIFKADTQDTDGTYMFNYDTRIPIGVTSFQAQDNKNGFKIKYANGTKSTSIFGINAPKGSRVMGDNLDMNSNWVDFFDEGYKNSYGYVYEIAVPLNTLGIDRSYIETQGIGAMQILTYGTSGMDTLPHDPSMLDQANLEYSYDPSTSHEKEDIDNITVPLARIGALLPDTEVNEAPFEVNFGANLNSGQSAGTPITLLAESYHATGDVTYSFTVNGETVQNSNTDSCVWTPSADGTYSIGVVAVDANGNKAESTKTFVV
# RbCBM26, sequence (A0ABF7PL48 31-129 limits assumed): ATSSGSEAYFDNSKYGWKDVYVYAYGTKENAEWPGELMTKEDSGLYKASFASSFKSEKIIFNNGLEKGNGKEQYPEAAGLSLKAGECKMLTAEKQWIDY
molecule,measurement,setting,value
"OC[C@H]1O[C@@H]2O[C@H]3[C@H](O)[C@@H](O)[C@@H](O[C@H]4[C@H](O)[C@@H](O)[C@@H](O[C@H]5[C@H](O)[C@@H](O)[C@@H](O[C@H]6[C@H](O)[C@@H](O)[C@@H](O[C@H]7[C@H](O)[C@@H](O)[C@@H](O[C@H]1[C@H](O)[C@H]2O)O[C@@H]7CO)O[C@@H]6CO)O[C@@H]5CO)O[C@@H]4CO)O[C@@H]3CO [ACX, α-cyclodextrin]",binding by ITC (in words),BIg–RbCBM74–BIg [1],no detectable affinity
same,n (binding stoichiometry),Sas6T,1.0 ± 0.4
same,binding by ITC (in words),RbCBM26,binds
same,n (binding stoichiometry),RbCBM26,0.8 ± 0.13
"OC[C@H]1O[C@H](O[C@H]2[C@H](O)[C@@H](O)[C@@H](O[C@H]3[C@H](O)[C@@H](O)[C@@H](O[C@H]4[C@H](O)[C@@H](O)[C@@H](O[C@H]5[C@H](O)[C@@H](O)[C@@H](O[C@H]6[C@H](O)[C@@H](O)[C@@H](O[C@H]7[C@H](O)[C@@H](O)[C@@H](O[C@H]8[C@H](O)[C@@H](O)C(O)O[C@@H]8CO)O[C@@H]7CO)O[C@@H]6CO)O[C@@H]5CO)O[C@@H]4CO)O[C@@H]3CO)O[C@@H]2CO)[C@H](O)[C@@H](O)[C@@H]1O (stereo partly shown) [G8, maltooctaose]",Kd,Sas6T,496 ± 260 µM
same,binding by ITC (in words),Sas6T,in the hundreds of μM
same,Kd,RbCBM26,285 ± 84 µM
"OC[C@H]1O[C@H](O[C@H]2[C@H](O)[C@@H](O)[C@@H](O[C@H]3[C@H](O)[C@@H](O)[C@@H](O[C@H]4[C@H](O)[C@@H](O)[C@@H](O[C@H]5[C@H](O)[C@@H](O)[C@@H](O[C@H]6[C@H](O)[C@@H](O)[C@@H](O[C@H]7[C@H](O)[C@@H](O)[C@@H](O[C@H]8[C@H](O)[C@@H](O)[C@@H](O[C@H]9[C@H](O)[C@@H](O)[C@@H](O[C@H]%10[C@H](O)[C@@H](O)C(O)O[C@@H]%10CO)O[C@@H]9CO)O[C@@H]8CO)O[C@@H]7CO)O[C@@H]6CO)O[C@@H]5CO)O[C@@H]4CO)O[C@@H]3CO)O[C@@H]2CO)[C@H](O)[C@@H](O)[C@@H]1O (stereo partly shown) [G10, maltodecaose]",decrease in affinity relative to BIg–RbCBM74–BIg,[2],10–20 fold
same,n (binding stoichiometry),"BIg–RbCBM74–BIg [1]; ITC, fitted n",0.9 ± 0.20
same,Kd,BIg–RbCBM74–BIg [3],2.16 ± 0.53 µM
same,binding by ITC (in words),[4],lost binding
same,n (binding stoichiometry),Sas6T,0.8 ± 0.07
same,n (binding stoichiometry),RbCBM26,0.7 ± 0.21
same,decrease in affinity relative to BIg–RbCBM74–BIg,[5],10–20 fold
"OC[C@H]1O[C@H](O[C@H]2[C@H](O)[C@@H](O)[C@@H](O[C@H]3[C@H](O)[C@@H](O)[C@@H](O[C@H]4[C@H](O)[C@@H](O)[C@@H](O[C@H]5[C@H](O)[C@@H](O)[C@@H](O[C@H]6[C@H](O)[C@@H](O)[C@@H](O[C@H]7[C@H](O)[C@@H](O)[C@@H](O[C@H]8[C@H](O)[C@@H](O)[C@@H](O[C@H]9[C@H](O)[C@@H](O)[C@@H](O[C@H]%10[C@H](O)[C@@H](O)[C@@H](O[C@H]%11[C@H](O)[C@@H](O)[C@@H](O[C@H]%12[C@H](O)[C@@H](O)[C@@H](O[C@H]%13[C@H](O)[C@@H](O)[C@@H](O[C@H]%14[C@H](O)[C@@H](O)C(O)O[C@@H]%14CO)O[C@@H]%13CO)O[C@@H]%12CO)O[C@@H]%11CO)O[C@@H]%10CO)O[C@@H]9CO)O[C@@H]8CO)O[C@@H]7CO)O[C@@H]6CO)O[C@@H]5CO)O[C@@H]4CO)O[C@@H]3CO)O[C@@H]2CO)[C@H](O)[C@@H](O)[C@@H]1O (stereo partly shown) [G14, maltotetradecaose]",Kd,BIg–RbCBM74–BIg [3],1.29 ± 0.1 µM
"OC[C@H]1O[C@H](OC[C@H]2O[C@H](O[C@H]3[C@H](O)[C@@H](O)[C@@H](O[C@H]4[C@H](O)[C@@H](O)[C@@H](OC[C@H]5O[C@H](O[C@H]6[C@H](O)[C@@H](O)[C@@H](O[C@H]7[C@H](O)[C@@H](O)C(O)O[C@@H]7CO)O[C@@H]6CO)[C@H](O)[C@@H](O)[C@@H]5O)O[C@@H]4CO)O[C@@H]3CO)[C@H](O)[C@@H](O)[C@@H]2O)[C@H](O)[C@@H](O)[C@@H]1O (stereo partly drawn) [glucosyl-α1,6-maltotriosyl-α 1,6-maltotriose]",binding by ITC (in words),BIg–RbCBM74–BIg [1],None of the constructs bound
same,binding by ITC (in words),Sas6T,None of the constructs bound
same,binding by ITC (in words),RbCBM26,None of the constructs bound
OC[C@H]1O[C@@H]2O[C@H]3[C@H](O)[C@@H](O)[C@@H](O[C@H]4[C@H](O)[C@@H](O)[C@@H](O[C@H]5[C@H](O)[C@@H](O)[C@@H](O[C@H]6[C@H](O)[C@@H](O)[C@@H](O[C@H]7[C@H](O)[C@@H](O)[C@@H](O[C@H]8[C@H](O)[C@@H](O)[C@@H](O[C@H]1[C@H](O)[C@H]2O)O[C@@H]8CO)O[C@@H]7CO)O[C@@H]6CO)O[C@@H]5CO)O[C@@H]4CO)O[C@@H]3CO [β-cyclodextrin],Kd,[6],350 to 600 µM
maltoheptaose [G7],binding by ITC (in words),BIg–RbCBM74–BIg [1],no detectable affinity
same,binding by ITC (in words),Sas6T,in the hundreds of μM
same,binding by ITC (in words),RbCBM26,binds
